The test system of assay [1] is Hyaluronic Acid Synthase 2 (HAS2). As to the kind of experiment: RNA-Seq gene expression of HAS2 in keratinocytes. In kind it is cell-based, Human. The conditions noted are these: 100 μg/ml, 24 hr. On the procedure: (§1) Cell Lines. Human adult dermal fibroblast and keratinocyte cell lines were treated with 11 different compound treatments (plus DMSO control as treatment #12). Primary cells were plated in cell specific media at 5K or 10K cells per cm^2. Cells were plated in 48 well plates in triplicate, one cell line per plate. Media volume was 500ul per well. Outer two columns of wells were not used. Cells were cultured for 2 days in 37° C. 5% CO2 incubator. After 48 hours all the cell cultures were uniform and appeared healthy, no appreciable number of floating dead cells or evidence of vacuolization of cells that might indicate apoptotic or dying cells.
(§2) Compounds. Stocks of compounds 1 through 8 on the list below were prepared in PBS at 100× the concentration indicated in red type. […] This stock was 100× of final concentration. A 20 mg/ml stock of compound 10 (CBD) was prepared in DMSO. […]
(§3) RNA lysate preparation. […] All samples were shipped frozen on dry ice for RNA extraction, library construction and sequencing to 25 M paired end 100 bp reads per sample.
(§4) RNA-Seq. All the RNA samples were shipped frozen on dry ice for RNA extraction, library construction and sequencing to 25 M paired end 100 bp reads per sample. Differentially expressed genes were identified and pathway enrichment was assessed using the Reactome Pathway.

The next assay deals with Hyaluronidase 2 (HYAL2). As to the kind of experiment: RNA-Seq gene expression of HYAL2 in keratinocytes. In kind it is cell-based, Human. The conditions noted are these: 100 μg/ml, 24 hr. On the procedure: as §1, §2, §3, §4
Assay [2] deals with Early Growth Response 3 (EGR3). Put plainly: RNA-Seq gene expression of EGR3 in keratinocytes. In kind it is cell-based, Human. Particulars: 100 μg/ml, 24 hr. On the procedure:
as §1, §2, §3, §4

The subject of assay [3] is Hyaluronic Acid Synthase 2 (HAS2). Put plainly: RNA-Seq gene expression of HAS2 in dermal fibroblasts. It is filed as cell-based, Human. Particulars: 100 μg/ml, 24 hr. On the procedure: as §1, §2, §3, §4
The next assay has as its system Human dermal fibroblasts. As to the kind of experiment: Octapeptide dose-response of high MW HA production (band density). In kind it is cell-based. Particulars: 72 hours. On the procedure:
Human dermal fibroblasts were treated with Octapeptide (1× and 10×; corresponding to 10 μg/ml and 100 μg/ml respectively) or left untreated. After 72 hours, the supernatant was collected, concentrated, run on an SDS-PAGE, stained and imaged. The experiment was conducted 4 times and the density of the bands from each supernatant were quantified (arbitrary units (AU)) using ImageJ. The data was graphed in FIG. 6 and represents the mean±standard deviation of the band densities for each treatment condition.

Hexapeptide-11: the “fold-change in HAS2 gene expression relative to non-treated cells” value in assay [1] was “excellent upregulation”. The “fold-change in HYAL2 gene expression relative to non-treated cells” value with Hyaluronidase 2 (HYAL2) is “potent downregulation”. For the same substance, in assay [2], the “upregulation of EGR3 gene expression relative to non-treated cells” value was “about seven”.
For “Octapeptide: proprietary peptide designed by Alastin; in some embodiments octapeptide-45, amino acid sequence GPHGVREA (Gly-Pro-His-Gly-Val-Arg-Glu-Ala)”, the “fold-change in HAS2 gene expression relative to non-treated cells” value in assay [3] is given as “excellent stimulation”. Also, in the assay with Hyaluronidase 2 (HYAL2), the “fold-change in HYAL2 gene expression relative to non-treated cells” value is “modest downregulation”. The “production of high MW HA in dermal fibroblasts” value in the assay on Human dermal fibroblasts (1× and 10× (10 μg/ml and 100 μg/ml)) is given as “dose-responsive increase”. For the same substance, the “density of high MW HA band (ImageJ)” value with Human dermal fibroblasts (10× Octapeptide (100 μg/ml), 4 experiments) was “vast increase in signal density”.

The values are drawn from patent US20250032532A1, “COMBINATION OF OCTAPEPTIDE AND HIGH MOLECULAR WEIGHT HYALURONIC ACID FOR TOPICAL APPLICATION” (Alastin Skincare, Inc., priority 2022, published 2025).
